The source made the active and inactive calls.
What was measured:
[1] = viability of HCT116 lacking mutant beta-catenin – cell-based, human colon tumor, dose response (AID 1045); assay type: functional;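 further: HCT116 colon tumor cells with beta catenin knocked out; cells exposed to compound for 60 hours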
[2] = THP-1 cell cytotoxicity, dose response, cytotoxicity control for non-replicating M. tuberculosis project (AID 489025); assay type: functional
[3] = test system: Streptococcus sp. 'group A'; experiment: Streptococcus pyogenes SK(-)GAS viability under kanamycin – luminescence, BacTiterGlo, confirmation, counter-screen for streptokinase expression inhibitor project, dose response (AID 1900); assay type: functional, organism-based
cells = assay type: functional
Protein RecA = biological target: T1, Protein RecA (Mycobacterium tuberculosis, UniProt P9WHJ3); experiment: Fluorescence Cell-Free Homogeneous Dose Retest to Identify Inhibitors of RecA-Intein Splicing Activity. [Related pubchem assays (depositor defined):AID2097, AID2223, AID489010, AID492950]; assay type: functional
T1 sequence (P9WHJ3 whole entry): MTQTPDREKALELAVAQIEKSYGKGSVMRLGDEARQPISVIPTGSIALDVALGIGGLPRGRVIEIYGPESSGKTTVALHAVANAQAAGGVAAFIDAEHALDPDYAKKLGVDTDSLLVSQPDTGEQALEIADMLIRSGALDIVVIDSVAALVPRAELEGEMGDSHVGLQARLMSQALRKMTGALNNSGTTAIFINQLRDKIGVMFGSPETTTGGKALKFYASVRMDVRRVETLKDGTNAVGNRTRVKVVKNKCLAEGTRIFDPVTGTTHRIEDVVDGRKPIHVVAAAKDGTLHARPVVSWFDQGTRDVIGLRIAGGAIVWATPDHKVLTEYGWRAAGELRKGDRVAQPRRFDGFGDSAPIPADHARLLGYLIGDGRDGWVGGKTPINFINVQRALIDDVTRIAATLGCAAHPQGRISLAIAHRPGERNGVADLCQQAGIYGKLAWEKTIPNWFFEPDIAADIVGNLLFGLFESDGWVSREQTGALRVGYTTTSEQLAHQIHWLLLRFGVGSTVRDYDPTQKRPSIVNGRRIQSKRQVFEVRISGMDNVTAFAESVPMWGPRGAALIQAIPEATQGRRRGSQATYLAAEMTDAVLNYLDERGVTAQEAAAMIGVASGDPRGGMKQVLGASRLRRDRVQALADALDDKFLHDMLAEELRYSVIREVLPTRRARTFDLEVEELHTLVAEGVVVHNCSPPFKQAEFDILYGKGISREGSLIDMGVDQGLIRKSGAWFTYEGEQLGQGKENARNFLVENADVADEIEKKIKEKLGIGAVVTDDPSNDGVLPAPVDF

INS1 = experiment: INS-1E survival protection against cytokine death – cell-based, luminescence, retest, dose response (AID 449756); assay type: functional; conditions: Rattus norvegicus;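 further: cell death triggered by IL-1 beta plus TNF-alpha plus IFN-gamma mixture; protective hits raise ATP signal compared with cytokine alone wells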
Streptococcus = experiment: GAS UMAA2166 growth inhibition – luminescence, BacTiterGlo, counter-screen for streptokinase expression inhibitor project, dose response (AID 1915); assay type: functional, organism-based;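 further: potency for reduction of bacterial viability or growth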
[4] = biological target: T2, Heat shock factor protein 1 (Mus musculus, UniProt P38532); experiment: decrease of HSF1-responsive luciferase luminescence – cell-based, NIH3T3, dose retest, confirmation (AID 2382); assay type: functional;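 further: NIH3T3 fibroblasts with HSF1-driven luciferase reporter stressed by proteasome inhibitor MG132; luminescence from HSF1-driven luciferase expression after 8 hours of MG132 stress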
T2 sequence (P38532 whole entry): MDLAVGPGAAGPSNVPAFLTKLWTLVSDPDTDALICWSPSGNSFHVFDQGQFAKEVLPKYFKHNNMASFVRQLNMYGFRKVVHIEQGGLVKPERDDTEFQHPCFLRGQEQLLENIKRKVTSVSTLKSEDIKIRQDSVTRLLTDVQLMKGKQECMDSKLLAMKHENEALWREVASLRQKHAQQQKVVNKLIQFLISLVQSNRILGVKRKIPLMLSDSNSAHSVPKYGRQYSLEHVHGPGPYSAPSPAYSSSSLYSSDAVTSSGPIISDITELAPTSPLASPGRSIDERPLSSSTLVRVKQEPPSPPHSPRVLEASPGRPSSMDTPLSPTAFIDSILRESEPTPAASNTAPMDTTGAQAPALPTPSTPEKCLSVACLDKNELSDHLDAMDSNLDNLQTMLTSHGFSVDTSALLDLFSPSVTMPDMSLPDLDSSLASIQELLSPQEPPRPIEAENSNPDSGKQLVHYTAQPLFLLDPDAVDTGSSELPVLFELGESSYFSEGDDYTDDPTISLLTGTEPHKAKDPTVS

[5] = Vero E6 cell cytotoxicity, dose response, cytotoxicity control for non-replicating M. tuberculosis project, secondary assay (AID 492998); assay type: functional, VeroE6; conditions: Vero C1008
Nonstructural protein 1 = Nonstructural protein 1 (Influenza A virus, UniProt Q194T2); assay type: functional, Influenza A virus (A/California/07/2009(H1N1))
Sequence of Nonstructural protein 1 (Q194T2 whole entry): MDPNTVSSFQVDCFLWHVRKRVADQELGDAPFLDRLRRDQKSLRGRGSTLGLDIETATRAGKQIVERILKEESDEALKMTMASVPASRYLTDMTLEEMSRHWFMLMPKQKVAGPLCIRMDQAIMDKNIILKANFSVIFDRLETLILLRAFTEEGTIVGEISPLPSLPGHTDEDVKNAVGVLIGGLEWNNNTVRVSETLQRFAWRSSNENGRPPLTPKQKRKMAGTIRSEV

[6] = HepG2 cell cytotoxicity, dose response, cytotoxicity control for non-replicating M. tuberculosis project (AID 489018); assay type: functional; conditions: Mycobacterium tuberculosis
[7] = viability of PTEN-deleted HCT116 cells – cell-based, HCT116 PTEN knockout, dose response (AID 1047); assay type: functional;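 further: HCT116 colon tumor cells with PTEN knocked out; cells exposed to compound for 60 hours before readout; potency for loss of cell viability measured by luminescence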
[8] = NIH3T3 cell viability loss – ATP luminescence, mouse fibroblasts, counter-screen, dose response (AID 2010); assay type: functional, cell-based;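 further: cells exposed to compound for about 90 hours before reading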

O=C1C(Nc2ccccc2)=C/C(=N/S(=O)(=O)c2cccs2)c2ccccc21
active: EC50 [1] 4.63 µM | CC50 [2] 1.8 µM | EC50 [3] 2.81 µM | IC50 (cells) 14.2 µM | EC50 (Protein RecA) 0.143 µM | AC50 (INS1) 0.907 µM | EC50 (Streptococcus) 4.21 µM | EC50 [4] 1.09 µM | CC50 [5] 7.43 µM | IC50 (Nonstructural protein 1) 9.04 µM | CC50 [6] 13.9 µM | EC50 [7] 4.13 µM | EC50 [8] 1.29 µM

— ChEMBL document CHEMBL1201862, “PubChem BioAssay data set” (2004)
